Experiments:
[1] = Octanol-water partition coefficient measurement; format: physicochemical; details: octanol / pH 7.4 phosphate buffer, octanol / pH7.4 phosphate buffer, room temperature 24 h, aqueous phase below LOQ, LOQ value used, read-out: octanol-water partition coefficient (log D)
Method: 1000 µg/mL of Vuti was mixed with octanol, and an aliquot of 2 mL was mixed with the same amount of aliquot of 2 mL of pH7.4 phosphate buffer. The mixed solution was shaken at room temperature for 24 h, and the aqueous and octanol phase was separately analyzed for Vuti concentration via HLPC. The limit of quantification (LOQ) was 0.2012 µg/ml. Three replicates were performed. Because no concentration was detected in the aqueous phase, LOQ value was used; the actual concentration in the aqueous phase is expected to be lower than LOQ. The octanol-water partition coefficient Log D was calculated as log of concentration in octanol phase divided by concentration in aqueous phase.
(a) Measurement of Vuti concentration in octanol and aqueous phase (pH7.4 phosphate buffer) via HPLC. The mean value of three replicates was used, and the limit of quantification (LOQ) value was used to calculate Log D as a log of concentration in the octanol phase divided by the concentration in the aqueous phase. (b) Efflux ratios (Papp(B→A)/Papp(A→B)) of Vuti in three types of cell monolayers, with or without P-glycoprotein (P-gp) inhibitor GF120918. (c) Schematic of 14C-labeling of Vuti. Attachment to the ethoxy group is warranted because it is robustly maintained throughout metabolism. (d) Plasma radioactivity concentration in Sprague-Dawley rats after a single administration of 10 mg/kg of 14C-Vuti (n = 3).

[2] = tested on: panel of a total of 225 mammalian proteins; test: In vitro safety (off-target) screening panel; details: 225 targets: ion channels, GPCR, nuclear receptors, kinases, enzymes, transporters; data not shown
Method: The overall safety of Vuti has been already established through human phase 1 clinical trial (NCT04732988, NCT04733001, NCT04703764). However, for its potential repositioning as a central nervous system (CNS)-targeting drug candidate, we performed a comprehensive neurotoxicity assessment of Vuti through in vitro safety screening. Interactions of Vuti were tested against an extensive panel of a total of 225 mammalian proteins, including ion channels, G-protein coupled receptors (GPCR), nuclear receptors, kinases, non-kinase enzymes, and drug transporters, cardiac function, and drug-drug interactions. Additionally, these also examined whether Vuti interacted with reported direct targets of glabridin [37], such as estrogen receptor, peroxisome proliferator-activated receptor gamma (PPARγ), and cyclooxygenase 2 (COX-2).

Question: For `CCOc1ccc(C2COc3c(ccc4c3CCC(C)(C)O4)C2)c(O)c1` (centres unmarked) [Vuti, Vutiglabridin], which logD at 24 h [1] is on record?
Answer: > 3.69

Question: What about the off-target interactions [2] of the same molecule?
Answer: no significant unexpected targets

From PMC12535076, “Neurotherapeutic effects of Vutiglabridin as a Paraoxonase-2 modulator in preclinical models of Parkinson’s disease” (Molecular Neurodegeneration, 2025)
